# According to patent EP4755888A1 (ILAb Co., Ltd., priority 2023, dated 2025):
# Key:
# [1] = target: PD-1/PD-L1 (Homo sapiens, UniProt Q9NZQ7); experiment: TR-FRET PD-1/PD-L1 binding inhibition at the molecular level (free proteins); conditions: Tag1-PD-L1 and Tag2-PD-1 proteins, twelve concentrations from 200 nM, 2 hours at room temperature, read-out: FRET assay (IC50)
# In short: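 HTRF read-out at 665/620 nm after 2 h at room temperature. Detection used anti-Tag1 Eu cryptate plus anti-Tag2 XL665 antibodies. Tagged PD-L1 and PD-1 proteins were pre-mixed with compound across twelve […] 1:2 dilutions starting at 200 nM.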
# [2] = target: T1, PD-L1 expressed on the cell surface (MC38 hPD-L1) (Homo sapiens, UniProt Q9NZQ7); experiment: Internalization of cell surface PD-L1, flow cytometry with fluorescent staining; assay type: cell-based; conditions: MC38 hPD-L1 cells, 1 µM, 4 hours; untreated 90% to 99%
# T1 construct: expressed in transfected cells; host or cells: MC38 mouse colon cancer cell line expressing human PD-L1
# Protocol: In order to evaluate the internalization of cell surface PD-L1 induced by the compounds of the present invention synthesized according to the above Preparation Examples, a flow cytometry experiment using fluorescent staining was conducted as described below.
# Specifically, a mouse colon cancer cell line expressing human PD-L1 (MC38 hPD-L1) was seeded into a 24-well plate at a density of 5 x 10^5 cells per well, followed by treatment with Compounds 206 to 227 at a concentration of 1 µM and incubation for 4 hours. After 4 hours, the compound-treated MC38 hPD-L1 cells were collected and stained with PE anti-hPD-L1 fluorecence at room temperature for 30 minutes. The rate of PD-L1 expression on the cell surface was then quantified using flow cytometry.
# T1 sequence (Q9NZQ7 19-290): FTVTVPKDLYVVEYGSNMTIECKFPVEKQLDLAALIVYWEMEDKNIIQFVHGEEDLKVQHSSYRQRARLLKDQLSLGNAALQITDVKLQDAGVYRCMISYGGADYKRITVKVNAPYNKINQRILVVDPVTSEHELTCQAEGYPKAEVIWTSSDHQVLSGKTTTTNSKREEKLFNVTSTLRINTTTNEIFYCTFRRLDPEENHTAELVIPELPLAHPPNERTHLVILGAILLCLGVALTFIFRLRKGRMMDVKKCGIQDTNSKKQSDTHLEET
# Chain of PD-1/PD-L1 (Q9NZQ7 19-238 limits assumed): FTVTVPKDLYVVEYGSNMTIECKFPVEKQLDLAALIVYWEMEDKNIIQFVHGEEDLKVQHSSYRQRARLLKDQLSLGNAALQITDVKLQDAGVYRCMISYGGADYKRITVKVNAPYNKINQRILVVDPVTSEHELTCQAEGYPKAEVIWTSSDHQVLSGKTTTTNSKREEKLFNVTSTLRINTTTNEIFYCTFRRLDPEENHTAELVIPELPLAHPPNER
IC50 [1],Cell surface PD-L1 expression level (%) [2],Compound
< 10 nM,71.0%,"O=C(Nc1cccc(-c2cccc(NC(=O)c3cc4n(n3)CCC[C@H]4N3CC[C@@H](C(=O)O)C3)c2Cl)c1Cl)c1ccc(CNCCO)cn1 [Compound 209, (R)-1-((R)-2-((2,2'-dichloro-3'-(5-(((2-hydroxyethyl)amino)methyl)picolinamido)-[1,1'-biphenyl]-3-yl)carbamoyl)-4,5,6,7-tetrahydropyrazolo[1,5-a]pyridin-4-yl)pyrrolidine-3-carboxylic acid]"
< 10 nM,75.3%,"Cc1c(NC(=O)c2cc3n(n2)CCC[C@H]3N2CC[C@@H](C(=O)O)C2)cccc1-c1cccc(Nc2nc(C(F)F)nc3cc(CN4CC[C@@H](O)C4)cnc23)c1C [Compound 211, (R)-1-((R)-2-((3'-((2-(difluoromethyl)-7-(((R)-3-hydroxypyrrolidin-1-yl)methyl)pyrido[3,2-d]pyrimidin-4-yl)amino)-2,2'-dimethyl-[1,1'-biphenyl]-3-yl)carbamoyl)-4,5,6,7-tetrahydropyrazolo[1,5-a]pyridin-4-yl)pyrrolidine-3-carboxylic acid]"
< 10 nM,73.9%,"Cc1c(NC(=O)c2cc3n(n2)CCC[C@H]3NCC(=O)O)cccc1-c1cccc(Nc2nc(C(F)F)nc3cc(CN4CC[C@@H](O)C4)cnc23)c1C [Compound 213, 2-(((R)-2-((3'-((2-(difluoromethyl)-7-(((R)-3-hydroxypyrrolidin-1-yl)methyl)pyrido[3,2-d]pyrimidin-4-yl)amino)-2,2'-dimethyl-[1,1'-biphenyl]-3-yl)carbamoyl)-4,5,6,7-tetrahydropyrazolo[1,5-a]pyridin-4-yl)amino)acetic acid]"
< 10 nM,88.7%,"Cc1c(NC(=O)c2ccc(CN3CC[C@@H](O)C3)cn2)cccc1-c1cccc(NC(=O)c2cc3n(n2)CCC[C@H]3NCCO)c1C [Compound 215, (R)-4-((2-hydroxyethyl)amino)-N-(3'-(5-(((R)-3-hydroxypyrrolidin-1-yl)methyl)picolinamido)-2,2'-dimethyl-[1,1'-biphenyl]-3-yl)-4,5,6,7-tetrahydropyrazolo[1,5-a]pyridine-2-carboxamide]"
< 10 nM,36.5%,"O=C(O)CN[C@@H]1CCCn2nc(C(=O)Nc3cccc(-c4cccc(Nc5nccc6cc(CN7CC[C@@H](O)C7)cnc56)c4Cl)c3Cl)cc21 [Compound 219, 2-(((R)-2-((2,2'-dichloro-3'-((3-(((R)-3-hydroxypyrrolidin-1-yl)methyl)-1,7-naphthyridin-8-yl)amino)-[1,1'-biphenyl]-3-yl)carbamoyl)-4,5,6,7-tetrahydropyrazolo[1,5-a]pyridin-4-yl)amino)acetic acid]"
< 10 nM,41.3%,"O=C(O)CN[C@@H]1CCCn2nc(C(=O)Nc3cccc(-c4cccc(NC(=O)c5ccc(CNCCO)cn5)c4Cl)c3Cl)cc21 [Compound 221, (R)-2-((2-((2,2'-dichloro-3'-(5-(((2-hydroxyethyl)amino)methyl)picolinamido)-[1,1'-biphenyl]-3-yl)carbamoyl)-4,5,6,7-tetrahydropyrazolo[1,5-a]pyridin-4-yl)amino)acetic acid]"
10 to 100 nM,–,"CN[C@H]1CCCn2nc(C(=O)Nc3cccc(-c4cccc(Nc5nc(C(F)(F)F)nc6cccnc56)c4Cl)c3Cl)cc21 [Compound 356, (S)-N-(2,2'-dichloro-3'-((2-(trifluoromethyl)pyrido[3,2-d]pyrimidin-4-yl)amino)-[1,1'-biphenyl]-3-yl)-4-(methylamino)-4,5,6,7-tetrahydropyrazolo[1,5-a]pyridine-2-carboxamide]"
10 to 100 nM,–,"CN[C@@H]1CCCn2nc(C(=O)Nc3cccc(-c4cccc(Nc5nc(C(F)(F)F)nc6cccnc56)c4Cl)c3Cl)cc21 [Compound 357, (R)-N-(2,2'-dichloro-3'-((2-(trifluoromethyl)pyrido[3,2-d]pyrimidin-4-yl)amino)-[1,1'-biphenyl]-3-yl)-4-(methylamino)-4,5,6,7-tetrahydropyrazolo[1,5-a]pyridine-2-carboxamide]"
